Tests used:
[1] = system: pSTAT5 in CD3+ cells (IFN-α stimulated); experiment: Inhibition of IFN-α-induced pSTAT5 expression in CD3+ cells of human whole blood, FACS detection; format: cell-based; conditions: 0.25 h, fresh human whole blood, IFN-α 20 ng/ml, 15 minutes
Protocol: The Inhibitory Effect of Compounds on the expression of pSTAT5 in CD3+ Cells Using FACS Detection • 1. Experimental Materials and instruments: • 1.1. Experimental reagents • DMSO, Sigma, Cat #D2650-100 ml, stored at room temperature. • Perm buffer III, BD Biosciences, Cat #558050, stored at 4° C. • Lyse/Fix buffer, BD Biosciences, Cat #558049, stored at room temperature. • EDTA, Invitrogen, Cat #15575-038, stored at room temperature. • PBS, Hyclone, Cat #SH30256.01, stored at 4° C. • PE Mouse Anti-Human CD3, BD Biosciences, Cat #555333, stored at 4° C. • Mouse anti-human Phospho-STATS (pY694) (Alexa Fluor® 647 Conjugate), BD Biosciences, Cat #562076, stored at 4° C. • IFN-α, Biolegend, Cat #592702 • 1.2 Experimental consumables • Microplate, 96 Well, PP, v-bottom, Greiner, Cat #GN651201-100EA. • 5 ml polystyrene round bottom tube, FALCON, Cat #04318011. • 96 square well storage plate, Thermo, Cat #AB-0661. • 96-well plate, Corning, Cat #3599. • 1.3 Instruments • CO2 cell incubator: MCO-15AC (Thermo) • Pipette: 0.2-10 μL, 20-200 μL, 200-1000 μL (Thermo) • Multichannel pipette: 0.2-10 μL, 5-50 μL, 20-300 μL (Raining) • Centrifuge: Thermo Centrifuge ST 40R; Thermo LEGEND Micro 21R • Water system: Millipore Milli-Q Reference system • Freezer: Haier ultralow temperature freezer • Haier 4 centigrade refrigerator • Haier −20 centigrade freezer • Vortex: EARTH REQUIRED • Plate Shaker: QI LIN BEI ER; MH-2 • Flow Cytometer: BD FACSVerse™ Flow Cytometer • 2 Experimental method: • 2.1 Compound Dilution • 1) On the day of experiment, the compound was prepared into a 10 mM solution with DMSO, diluted to 1.5 mM with DMSO, and then diluted to 8 gradient concentrations with 3-fold dilutions. • 2) 5 μl of diluted compound was transferred into 120 ul of DPBS solution with 0.1% BSA. • 3) Positive and negative control groups were set up, with an addition of 0.5% DMSO to the positive and negative control groups. • 2.2 Experimental procedure • 1) 67.5 ul of fresh human whole blood was added to the 96-well cell culture plate. • 2) 3.5 ul of diluted compound was added and mixed well. • 3) Incubating in a 37° C. incubator for 60 minutes. • 4) IFN-α was diluted in DPBS containing 0.1% BSA to 400 ng/ml, and PE anti-hCD3 antibody was diluted in DPBS containing 0.1% BSA to 5-fold. After the above 60-minute incubation, diluted PE anti-hCD3 antibody was added at 5 ul per well and diluted IFN-α was added at 4 ul per well, i.e., the final concentration of IFN-α per well was 20 ng/ml. • 5) Incubating in a 37° C. incubator for 15 minutes. • 6) All cells were transferred to a 96-well deep well plate and 1 ml of 37° C. preheated lysis/fix buffer was added. • 7) Incubating at 37° C. in dark for 10 minutes. • 8) Centrifuging at 600 g for 5 minutes and then the supernatant was discarded. Washing by adding 1 ml PBS for twice and centrifuging. • 9) 1 ml of Perm buffer III was added to cell precipitation. • 10) Incubating at 37° C. in dark for 30 minutes. • 11) Centrifuging at 600 g for 5 minutes and then the supernatant was discarded. Washing by adding 1 ml PBS for twice and centrifuging. • 12) APC anti-human pSTAT5 antibody was diluted in staining buffer, and then added to cell wells at 100 ul per well and mixed well. • 13) Incubating at room temperature for 40 minutes. • 14) Staining buffer was added and washed twice, 1 ml for each well, centrifuging at 600 g for 5 minutes. • 15) After discarding the supernatant, the cell precipitation was resuspended in 300 ul of staining buffer. • 16) Sample loading and analysing in a flow cytometer.

TYK2(JH1) = molecular target: T1, TYK2(JH1) (Homo sapiens, UniProt P29597); experiment: Kinase (JH1) experiment, TYK2(JH1); format: biochemical
T1 construct: TYK2-JH1 (the kinase domain of TYK2)
T1 sequence (P29597 897-1176 limits assumed): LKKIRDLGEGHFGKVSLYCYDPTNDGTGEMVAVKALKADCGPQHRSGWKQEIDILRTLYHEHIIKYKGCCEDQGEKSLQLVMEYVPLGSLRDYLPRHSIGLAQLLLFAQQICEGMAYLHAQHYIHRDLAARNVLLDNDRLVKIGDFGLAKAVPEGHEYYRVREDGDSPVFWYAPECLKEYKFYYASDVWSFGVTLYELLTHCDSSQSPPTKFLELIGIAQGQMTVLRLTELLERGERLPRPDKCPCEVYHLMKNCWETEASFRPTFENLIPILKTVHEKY
Protocol: (§1) • 1. Experimental method • 1.1. Pseudokinase (JH2) experiment operation was as follows: • 1.1.1. The compound was dissolved with DMSO to a storage concentration of 10 mM. • 1.1.2. A compound concentration of 200 times the final concentration was prepared in a compound dilution plate, which was diluted from the highest concentration point with a total of 4 concentration points using the 27 times dilution method, and then transferred to the Echo plate. • 1.1.3. The compound was flushed from the Echo plate to the 384 well experimental plate using an Echo instrument, thereby obtaining a total of 11 concentration points of the compound with three-fold dilution matrix. • 1.1.4. 5 ul of TYK2-JH2 or JAK1-JH2 pseudokinase, 3 times the final concentration, was added to the 384-well experimental plate. • 1.1.5. 5 ul of Tb, 3 times the final concentration, was added to the 384-well experimental plate. • 1.1.6. 5 ul of Tracer, 3 times the final concentration, was added to the 384-well experimental plate. • 1.1.7. Centrifuging for 30 seconds and incubating at room temperature for 60 minutes. • 1.1.8. The fluorescence ratio of 520 nm to 495 nm was read using Envision Microplate Reader (PerkinElmer). • 1.2. Kinase (JH1) experiment operation was as follows: • 1.2.1. […] The fluorescence ratio at 665 nm and 615 nm were read using Envision Microplate Reader (PerkinElmer). • 1.3. […]

TYK2(JH2) = TYK2(JH2) (Homo sapiens, UniProt P29597); experiment: Pseudokinase (JH2) experiment with Tb/Tracer, TYK2-JH2; format: binding
Protocol: as §1

JAK1(JH1) = molecular target: T2, JAK1(JH1) (Homo sapiens, UniProt P23458); experiment: Kinase (JH1) experiment, JAK1(JH1); format: biochemical
T2 construct: JAK1-JH1 (the kinase domain of JAK1)
Protocol: as §1

JAK1(JH2) = JAK1(JH2) (Homo sapiens, UniProt P23458); experiment: Pseudokinase (JH2) experiment with Tb/Tracer, JAK1-JH2; format: binding
Protocol: as §1

JAK2(JH1) = molecular target: T3, JAK2(JH1) (Homo sapiens, UniProt O60674); experiment: Kinase (JH1) experiment, JAK2(JH1); format: biochemical
T3 construct: JAK2-JH1 (the kinase domain of JAK2)
Protocol: as §1

JAK3(JH1) = molecular target: T4, JAK3(JH1) (Homo sapiens, UniProt P52333); experiment: Kinase (JH1) experiment, JAK3(JH1); format: biochemical
T4 construct: JAK3-JH1 (the kinase domain of JAK3)
Protocol: as §1

[2] = selectivity ratio versus TYK2-JH2

T4 sequence (P52333 822-1111 limits assumed): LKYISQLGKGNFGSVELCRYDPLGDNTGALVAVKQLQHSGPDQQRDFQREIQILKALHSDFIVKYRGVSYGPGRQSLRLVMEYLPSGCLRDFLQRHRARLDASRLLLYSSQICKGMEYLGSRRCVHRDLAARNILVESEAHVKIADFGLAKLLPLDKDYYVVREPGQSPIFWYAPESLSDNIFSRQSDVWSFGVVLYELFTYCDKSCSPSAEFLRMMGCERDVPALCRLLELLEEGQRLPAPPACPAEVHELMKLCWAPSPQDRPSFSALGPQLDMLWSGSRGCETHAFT
T2 sequence (P23458 875-1153 limits assumed): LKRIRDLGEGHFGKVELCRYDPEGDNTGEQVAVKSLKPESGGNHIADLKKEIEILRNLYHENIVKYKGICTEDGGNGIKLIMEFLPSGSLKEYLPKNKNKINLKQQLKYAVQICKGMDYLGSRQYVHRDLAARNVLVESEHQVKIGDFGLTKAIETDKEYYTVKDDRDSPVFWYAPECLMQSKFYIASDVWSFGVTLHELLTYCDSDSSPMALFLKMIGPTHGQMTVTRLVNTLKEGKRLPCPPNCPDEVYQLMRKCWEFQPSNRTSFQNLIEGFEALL
Sequence of TYK2(JH2) (P29597 589-875 limits assumed): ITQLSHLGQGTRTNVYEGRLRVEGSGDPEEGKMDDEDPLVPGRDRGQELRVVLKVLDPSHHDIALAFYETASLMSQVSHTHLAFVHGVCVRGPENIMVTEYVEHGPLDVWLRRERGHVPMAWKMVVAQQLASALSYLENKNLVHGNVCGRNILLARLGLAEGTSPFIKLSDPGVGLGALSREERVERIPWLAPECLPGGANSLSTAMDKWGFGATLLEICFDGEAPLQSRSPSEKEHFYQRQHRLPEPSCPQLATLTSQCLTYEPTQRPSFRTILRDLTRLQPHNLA
T3 sequence (O60674 849-1124 limits assumed): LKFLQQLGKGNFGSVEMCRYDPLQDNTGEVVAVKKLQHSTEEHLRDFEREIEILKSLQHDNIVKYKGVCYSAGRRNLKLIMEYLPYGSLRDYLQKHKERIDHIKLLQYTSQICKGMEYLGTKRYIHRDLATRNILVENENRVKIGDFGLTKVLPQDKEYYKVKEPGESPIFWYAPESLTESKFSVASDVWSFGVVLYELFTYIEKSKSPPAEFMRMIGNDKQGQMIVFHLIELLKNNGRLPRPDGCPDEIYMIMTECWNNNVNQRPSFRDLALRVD
Sequence of JAK1(JH2) (P23458 583-855 limits assumed): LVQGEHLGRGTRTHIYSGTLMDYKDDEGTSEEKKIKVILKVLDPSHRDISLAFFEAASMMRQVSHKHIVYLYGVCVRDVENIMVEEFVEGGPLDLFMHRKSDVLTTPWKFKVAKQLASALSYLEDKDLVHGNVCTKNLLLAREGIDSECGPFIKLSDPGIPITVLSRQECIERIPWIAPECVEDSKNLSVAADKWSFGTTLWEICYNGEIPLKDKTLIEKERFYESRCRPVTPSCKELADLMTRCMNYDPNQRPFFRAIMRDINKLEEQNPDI

Q: Which IC50 [1] does the source give for `[2H]C([2H])([2H])NC(=O)c1nnc(NC(=O)C2CC23CC3)cc1Nc1nccnc1S(=O)(=O)C1CC1` (stereo not drawn) [Compound 5] here?
A: 2110 nM

Q: `[2H]C([2H])([2H])NC(=O)c1cnc(NC(=O)C2CC2)cc1Nc1ncccc1S(=O)(=O)C1CC1` [Compound 6] was tested. Which IC50 [1] did it give?
A: 128 nM

Q: For `[2H]C([2H])([2H])NC(=O)c1nnc(NC(=O)C2CC2)cc1Nc1ccccc1S(=O)(=O)C1CC1` [Compound 1], which IC50 [1] is on record?
A: 2800 nM

Q: `[2H]C([2H])([2H])NC(=O)c1nnc(NC(=O)C2CC2)cc1Nc1nccnc1S(=O)(=O)C1CC1` [Compound 2] was tested. Which IC50 [1] did it give?
A: 867 nM

Q: `[2H]C([2H])([2H])NC(=O)c1nnc(NC(=O)C2CC2)cc1Nc1ncccc1S(=O)(=O)C1CC1` [Compound 3] was tested. Which IC50 [1] did it give?
A: 64 nM

Q: And the IC50 (TYK2(JH1); kinase domain)?
A: 4310 nM

Q: What about the “IC50Other/IC50TYK2-JH2, TYK2(JH1)” value (TYK2(JH1); [2]) of the same compound?
A: 13480

Q: What about the IC50 (TYK2(JH2); pseudokinase domain) of the same compound?
A: 0.32 nM

Q: And the “IC50Other/IC50TYK2-JH2, TYK2(JH2)” value (TYK2(JH2); reference ratio, TYK2-JH2 versus itself)?
A: 1

Q: And the IC50 (JAK1(JH1); kinase domain)?
A: 3190 nM

Q: And the “IC50Other/IC50TYK2-JH2, JAK1(JH1)” value (JAK1(JH1); [2])?
A: 9955

Q: What about the IC50 (JAK1(JH2); pseudokinase domain) of the same compound?
A: 53.1 nM

Q: What about the “IC50Other/IC50TYK2-JH2, JAK1(JH2)” value (JAK1(JH2); [2]) of the same compound?
A: 166

Q: What about the IC50 (JAK2(JH1); kinase domain) of the same compound?
A: 2810 nM

Q: What about the “IC50Other/IC50TYK2-JH2, JAK2(JH1)” value (JAK2(JH1); [2]) of the same compound?
A: 8790

Q: And the IC50 (JAK3(JH1); kinase domain)?
A: 2380 nM

Q: And the “IC50Other/IC50TYK2-JH2, JAK3(JH1)” value (JAK3(JH1); [2])?
A: 7432

Q: For `[2H]C([2H])([2H])NC(=O)c1nnc(NC(=O)C2CC23CC3)cc1Nc1ncccc1S(=O)(=O)C1CC1` (stereo not drawn) [Compound 4], which IC50 [1] is on record?
A: 168 nM
